How the values were obtained:
[1] = system: epidermal keratinocytes; assay: Keratinocyte extracellular matrix attachment; type: cell-based, human
Protocol: Human, adult, epidermal keratinocytes, were purchased cryopreserved from Cascade Biologics Inc., Nottinghamshire, U.K. These cells (>500,000 viable cells/vial) were tested to be >70% viable, with the capacity to proliferate for at least 16 population doublings. The epidermal keratinocytes were cultured in serum-free, EpiLife® Medium (Cascade Biologics Inc.), supplemented with antibiotics (100 U/ml penicillin G sodium, […] streptomycin sulphate and 0.25 μg/ml amphotericin B) and EpiLife® Defined Growth Supplement (EDGS, consisting of purified bovine serum albumin, purified bovine transferring, hydrocortisone, recombinant human insulin-like growth factor type-1, prostaglandin E2 and recombinant human epidermal growth factor, Cascade Biologics Inc.). Epidermal keratinocytes cultures were maintained at 37° C., in a 5% CO2/95% air atmosphere, with the culture medium being changed every 2-3 days. Epidermal keratinocytes were used between 4-6 passages, for all experiments.
Prior to use, the PEP005/DMSO stock solution was removed from 4° C. storage and warmed to room temperature. […]

[2] = system: MMP-2; assay: Gelatin zymography of FPCL conditioned medium; type: cell-based, human; conditions: PEP005 0.01-0.1 μg/ml
Description: The ability of dermal fibroblasts to remodel/reorganize their ECM environment in the presence of PEP005 was examined by fibroblast populated collagen lattices (FPCLs), according to Cook et al (2000). Following trypsinization, dermal fibroblasts were suspended in Fibroblast-Serum Containing Medium, containing 10% gelatinase-free, fetal calf serum (prepared using a gelatin-A Sepharose column, GE Healthcare Ltd., Buckinghamshire, U.K.), to remove endogenous MMP-2 and MMP-9 activity. […] The degree of ECM reorganization/lattice contraction was quantified from three separate lattice diameter measurements performed on each of the three replicate samples, at days 1, 2, 3, 4, 5, 6, 7, 10 and 14, after initial fabrication. […]
To determine the relative amounts of pro- and active MMP species produced by the cells in the FPCL systems, gelatin zymography was employed, according to Cook et al (2000). Equal volumes (15 μl) of FPCL conditioned medium were subjected to sodium dodecyl sulphate-polyacrylamide gel electrophoresis (SDS-PAGE), on pre-cast 10% gelatin zymography gels (Ready Gel 10% Gelatin Zymogram Gels, Bio-Rad Laboratories Ltd., Hertfordshire, U.K.), incorporated into a Mini-Protean 3 Gel Electrophoresis System (Bio-Rad Laboratories Ltd.), at 15 mA for 4-5 h. […]

Structure (SMILES): C/C=C(/C)C(=O)O[C@H]1C(C)=C[C@]23C(=O)[C@@H](C=C(CO)[C@@H](O)[C@]12O)[C@H]1[C@@H](C[C@H]3C)C1(C)C [PEP005, ingenol-3-angelate]
- epidermal keratinocyte attachment to type I collagen ([1]; 0, 01-10 μg/ml PEP005): significant dose-dependent stimulation
- epidermal keratinocyte attachment to plasma fibronectin ([1]; 1-μg/ml PEP005): trend towards a possible stimulation
- Pro and active MMP-2 levels [2]: observed to increase
